{"source": "paper PMC9030138", "about": "“The Facile Preparation of PBA-GO-CuO-Modified Electrochemical Biosensor Used for the Measurement of α-Amylase Inhibitors’ Activity” (Molecules, 2022)", "target": "T1, α-amylase (Sus scrofa, UniProt P00690)", "T1 construct": "gene AMY2; from porcine pancreas, type VI-B", "T1 sequence (P00690 16-511)": "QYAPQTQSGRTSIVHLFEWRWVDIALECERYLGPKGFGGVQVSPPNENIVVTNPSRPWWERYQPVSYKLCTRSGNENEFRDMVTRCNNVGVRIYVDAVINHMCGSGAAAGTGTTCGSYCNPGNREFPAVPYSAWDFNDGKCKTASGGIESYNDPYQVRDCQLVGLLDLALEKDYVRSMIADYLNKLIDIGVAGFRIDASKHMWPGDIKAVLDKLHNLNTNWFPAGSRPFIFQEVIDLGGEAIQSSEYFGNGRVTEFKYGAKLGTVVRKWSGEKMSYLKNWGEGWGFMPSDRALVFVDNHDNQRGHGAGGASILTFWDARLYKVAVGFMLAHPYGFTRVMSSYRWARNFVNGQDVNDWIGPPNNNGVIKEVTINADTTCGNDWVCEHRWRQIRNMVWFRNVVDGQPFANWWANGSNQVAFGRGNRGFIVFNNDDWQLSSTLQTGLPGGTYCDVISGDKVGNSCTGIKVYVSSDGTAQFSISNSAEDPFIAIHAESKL", "experiment": "electrochemical glucose sensor (PBA-GO-CuO electrode) assay of starch hydrolysis; checked by iodine colorimetric assay", "format": "biochemical", "note": "pIC50: −log10 of the molar value."}
{"smiles": "O=C(O)c1cc(O)c2c(c1)C(=O)c1cccc(O[C@@H]3O[C@H](CO)[C@@H](O)[C@H](O)[C@H]3O)c1C2=O", "note": "[Rhein-8-b-D-glucopyranoside]", "values": [{"measurement": "pIC50", "value": 4.41}]}
